Data as given in publication PMC4873483 (Experimental Animals, 2015).
Read-outs that look alike come from different tables or passages of the source.

Legend:
plasma proteins = details: cited from earlier work
[1] = given by mouth over a time frame of up to 4 weeks; cited from earlier work
[2] = mice, within 48 h post dose; cited from earlier work
[3] = assay type: in vivo, domestic pigs (Sus scrofa domestica)
[4] = Pharmacokinetic study following repeated s.c. administration of 1-MT; assay type: in vivo, domestic pigs (Sus scrofa domestica)
[5] = Pharmacokinetic study following a single s.c. administration of 1-MT; assay type: in vivo, domestic pigs (Sus scrofa domestica); details: for Cmax: means ± standard deviation
[6] = repeated oral administration at a saturating dose, rats and dogs; cited from earlier work
[7] = 12 h after the final of five daily s.c. injections, n=6
[8] = German Landrace, pig, plasma, sc, 1 g
[9] = one-compartment model fitted by numerical simulation to single-dose plasma data
[10] = single s.c. administration of 1 g 1-MT, n=3
[11] = endogenous TRP, 12 h after the final s.c. injection of 1-MT
[12] = endogenous TRP, all four animals

Structure (SMILES): Cn1cc(C[C@H](N)C(=O)O)c2ccccc21 [1-MT, 1-methyl-L-tryptophan]
- bound to plasma proteins (plasma proteins): less than 15%
- maximum tolerated dose [1]: 1.6 g/day
- excreted via feces [2]: 13%
- excreted via urine [2]: 35%
- daily feed uptake ([3]; five daily s.c. administrations of 1 g 1-MT, not different from MYR (P = 0.97)): 0.66 ± 0.02 kg
- fever response ([3]; five-day period of 1-MT administration): no fever response
- health status after a single s.c. injection ([3]; single s.c. 1 g 1-MT, visual inspection twice daily): No impairment of the health status could be observed
- steady state of plasma trough concentrations ([4]; 1 g 1-MT s.c. daily for five days): steady state conditions of trough values were reached after two subcutaneous administrations
- 1-MT concentrations in peripheral tissues ([4]; 12 h after the final of five daily s.c. injections): 48–152 nmol/g wet tissue weight
- 1-MT concentration in kidney and liver [4, 7]: greater than 100 nmol/g wet tissue weight
- 1-MT concentration in the different brain areas [4, 7]: lower than 20 nmol/g wet tissue weight
- concentration at 12 h [4, 8]: 38 µM
- share of 1-MT accumulated in organs derived from contamination with blood ([4]; estimated from plasma 1-MT and organ blood volumes (32-408 µl/g)): less than 5%
- AUC(0-t) [5, 8]: 960 ± 346 µM·h
- Tmax [5, 8]: 12 h
- concentration at 24 h [5, 8]: 21.1 ± 5.3 µM
- Cmax ([5]; German Landrace, pig, plasma, sc, 1 g, Cmax, maximum concentration in pigs plasma, single s.c. administration of 1 g 1-MT, n=3): 29.1 ± 8 µM
- half-life ([5]; German Landrace, pig, plasma, sc, 1 g, T1/2, half-life, single s.c. administration of 1 g 1-MT, n=3): 10.9 ± 2 h
- kabsorption [5, 9]: 0.08 min⁻¹
- kelimination [5, 9]: 0.001 min⁻¹
- krelease [5, 9]: 0.0018 min⁻¹
- Cmax ([5]; read-out: Cmax, maximum concentration in pigs plasma, single s.c. administration of 1 g 1-MT, n=3): 29.1 ± 7.97 µM
- T1/2, half-life [5, 10]: 10.93 ± 2.03 h
- k, first-order kinetic rate constant [5, 10]: 0.065 ± 0.011 h⁻¹
- tolerability [6]: well tolerated, with no toxic effects

Structure (SMILES): N[C@@H](Cc1c[nH]c2ccccc12)C(=O)O [TRP, tryptophan]
- TRP concentration in kidney, liver, adrenal gland, spleen, and thyroid gland [4, 11]: greater than 40 nmol/g wet tissue weight
- TRP concentration in the other tissues [4, 11]: lower than 30 nmol/g wet tissue
- maximum TRP concentration in plasma over the 7-day period [5, 12]: 37.7 µM
- minimum TRP concentration in plasma over the 7-day period [5, 12]: 13.1 µM
- average TRP concentration in plasma over the entire 7-day period ([5]; endogenous TRP, all four animals, after single s.c. 1-MT or MYR): 22.8 ± 5.1 µM
